Measured values reported in article PMC10892984, “Novel Antineoplastic Inducers of Mitochondrial Apoptosis in Human Cancer Cells” (Molecules, 2024).

Columns and labels:
[1] = tested on: HIV-1LAI; assay: HIV-1LAI replication reverse transcriptase assay in primary PBM cells; type: cell-based, human immunodeficiency virus type 1
Description: (§1) The cytotoxicity and human immunodeficiency virus type 1 (HIV-1) strain LAI replication assays were performed in freshly explanted primary human peripheral blood mononuclear cells (PBM cells) according to published procedures. The assays were conducted at least in triplicate and treated statistically (if possible). HIV-1LAI (= HIV-1BRU = LAV-1) was assayed in primary human peripheral blood lymphocyte (PBL) cells in the presence of a drug being evaluated. The parameter for antiviral activity was a reduction in reverse transcriptase (RT) activity in the cell supernatant after Triton X–100-mediated lysis of released virions, as measured using [5α-^3H]dTTP (5α-tritiated thymidine 5′-triphosphate) incorporation into poly(rA)•poly(dT) directed by the primed RNA template poly(rA)•oligo(dT). […] The detailed assay methodology was reported by Schinazi et al. as based on an older assay system of Spira et al.. The experiments were conducted in triplicate and treated statistically using regression curve analysis (r^2 coefficient of determination). The RT inhibitor AZT (zidovudine, 3′-azido-3′-deoxythymidine; RETROVIR™) served as a positive control. Cytotoxicity on PBL and the other cells (CCRF−CEM, Vero) exerted by the test compounds was determined as described by Stuyver et al. by application of the CellTiter 96® AQueous One Solution Cell Proliferation Assay (Promega Corp., Madison, WI, USA). Briefly, the phenazine ethosulfate (PES)-coupled reduction of the tetrazolium salt 3-(4,5-dimethylthiazol-2-yl)-5-(3-carboxymethoxyphenyl)-2-(4-sulfophenyl)-2H-tetrazolium (MTS) to a purple, water-soluble formazan by living, undamaged cells was measured.

[2] = Cytotoxicity (CellTiter 96 AQueous One, MTS); type: cell-based; details: human; PBM cells
Description: (§2) The cytotoxicity and human immunodeficiency virus type 1 (HIV-1) strain LAI replication assays were performed in freshly explanted primary human peripheral blood mononuclear cells (PBM cells) according to published procedures. The assays were conducted at least in triplicate and treated statistically (if possible). HIV-1LAI (= HIV-1BRU = LAV-1) was assayed in primary human peripheral blood lymphocyte (PBL) cells in the presence of a drug being evaluated. The parameter for antiviral activity was a reduction in reverse transcriptase (RT) activity in the cell supernatant after Triton X–100-mediated lysis of released virions, as measured using [5α-^3H]dTTP (5α-tritiated thymidine 5′-triphosphate) incorporation into poly(rA)•poly(dT) directed by the primed RNA template poly(rA)•oligo(dT). […] Cytotoxicity on PBL and the other cells (CCRF−CEM, Vero) exerted by the test compounds was determined as described by Stuyver et al. by application of the CellTiter 96® AQueous One Solution Cell Proliferation Assay (Promega Corp., Madison, WI, USA). Briefly, the phenazine ethosulfate (PES)-coupled reduction of the tetrazolium salt 3-(4,5-dimethylthiazol-2-yl)-5-(3-carboxymethoxyphenyl)-2-(4-sulfophenyl)-2H-tetrazolium (MTS) to a purple, water-soluble formazan by living, undamaged cells was measured.

[3] = Cytotoxicity (CellTiter 96 AQueous One, MTS); type: cell-based, human; details: human; CCRF−CEM cells
Description: as §1

[4] = Cytotoxicity (CellTiter 96 AQueous One, MTS); type: cell-based, African green monkey (grivet) Chlorocebus aethiops; details: African green monkey (Chlorocebus aethiops), Vero cells
Description: as §2

- EC50 ([1]; Human immunodeficiency virus 1, PBMC, primary human PBM cells, reverse transcriptase activity in supernatant, read-out: Anti-HIV-1LAI activity EC50): 0.0044 ± 0.0018 µM
- EC90 ([1]; Human immunodeficiency virus 1, PBMC, primary human PBM cells, reverse transcriptase activity in supernatant, read-out: Anti-HIV-1LAI activity EC90): 0.031 ± 0.015 µM
Structure (SMILES): Cc1cn([C@H]2C[C@H](N=[N+]=[N-])[C@@H](CO)O2)c(=O)[nH]c1=O [AZT, 3′-azido-3′-deoxythymidine, reference compound]
- SI50, selectivity index CC50/EC50 ([1]; PBM cells): >22,727
- CC50 [2]: > 100 µM
- CC50 [3]: 14.3 µM
- CC50 [4]: 56 µM
